Columns and labels:
Type in all cases: functional
SK-OV-3 [1] = test: Cytotoxicity ratio was evaluated against human tumor cell line SKOV3 (Human ovarian cancer) after 72 hr incubation relative to paclitaxel (ED50 = […])
ECa-109 cell line [2] = test: Cytotoxicity ratio was evaluated against tumor cell line ECa-109 (Human esophagus cancer) after 72 hr incubation relative to paclitaxel (ED50 = […])
WiDr [3] = test: Cytotoxicity ratio was evaluated against human tumor cell line WIDR (Human colon cancer) after 72 hr incubation relative to paclitaxel (ED50 = […])
MCF7 [4] = test: Cytotoxicity ratio was evaluated against human tumor cell line MCF-7 (Human breast cancer) after 72 hr incubation relative to paclitaxel (ED50 = […])
[5] = target: Tubulin alpha chain (Sus scrofa) (UniProt P02550); test: Effective dose which causes polymerization of 50% of the tubulin present at 37 degree C in Microtubule assembly assay
MCF7 [6] = test: Cytotoxicity ratio was evaluated against human tumor cell line MCF-7 (Human breast cancer) after 72 h incubation
SK-OV-3 [7] = test: Cytotoxicity ratio was evaluated against human tumor cell line SKOV3 (Human ovarian cancer) after 72 hr incubation
WiDr [8] = test: Cytotoxicity ratio was evaluated against human tumor cell line WIDR (Human colon cancer) after 72 hr incubation
ECa-109 cell line [9] = test: Cytotoxicity ratio was evaluated against tumor cell line ECa-109 (Human esophagus cancer) after 72 hr incubation

Tubulin alpha chain (Sus scrofa), sequence (P02550 whole entry, looked up): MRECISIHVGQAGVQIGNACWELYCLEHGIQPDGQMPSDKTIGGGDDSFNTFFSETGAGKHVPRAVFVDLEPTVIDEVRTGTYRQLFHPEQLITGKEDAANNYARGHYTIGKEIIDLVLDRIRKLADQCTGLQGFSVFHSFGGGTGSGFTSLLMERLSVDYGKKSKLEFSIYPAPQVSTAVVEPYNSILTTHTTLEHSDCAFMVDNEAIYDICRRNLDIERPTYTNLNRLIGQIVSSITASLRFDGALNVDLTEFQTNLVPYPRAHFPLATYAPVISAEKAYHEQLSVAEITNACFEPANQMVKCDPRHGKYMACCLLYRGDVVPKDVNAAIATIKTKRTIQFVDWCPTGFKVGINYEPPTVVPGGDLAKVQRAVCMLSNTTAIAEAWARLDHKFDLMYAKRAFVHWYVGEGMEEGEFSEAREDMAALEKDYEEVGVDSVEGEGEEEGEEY

In the case of CC(=O)O[C@@H]1C2=C(C)[C@@H](OC(=O)[C@H](O)[C@@H](NC(=O)c3ccccc3)c3ccccc3)C[C@@](O)([C@@H](OC(=O)c3ccccc3)C3[C@@](C)(CC[C@H]4OC[C@@]34OC(C)=O)[C@H]1OC(=O)CCC(=O)OC[C@H]1O[C@@H](n3cc(Br)c(=O)[nH]c3=O)[C@H](O)[C@@H]1O)C2(C)C (stereo not given in full), the Ratio (SK-OV-3 [1]) was 4.06, the Ratio (ECa-109 cell line [2]) was 0.16 and the Ratio (WiDr [3]) was 3.87. For the same compound, the Ratio (MCF7 [4]) was 2.64 and the ED50 [5] was greater than 15000 nM.
Work on CC(=O)O[C@@H]1C2=C(C)[C@@H](OC(=O)[C@H](O)[C@@H](NC(=O)c3ccccc3)c3ccccc3)C[C@@](O)([C@@H](OC(=O)c3ccccc3)C3[C@@](C)(CC[C@H]4OC[C@@]34OC(C)=O)[C@H]1OC(=O)CCC(=O)OC[C@H]1O[C@@H](n3ccc(NC(=O)c4ccccc4)nc3=O)C[C@@H]1O)C2(C)C (stereo not given in full) yielded a Ratio (SK-OV-3 [1]) of 1.98, a Ratio (ECa-109 cell line [2]) of 1.03 and a Ratio (WiDr [3]) of 2.43. For the same compound, the Ratio (MCF7 [4]) was 1.63 and the ED50 [5] was 900 nM.
CC(=O)O[C@H]1C(=O)[C@@]2(C)[C@H]([C@H](OC(=O)c3ccccc3)[C@]3(O)C[C@H](OC(=O)[C@H](O)[C@@H](NC(=O)c4ccccc4)c4ccccc4)C(C)=C1C3(C)C)[C@]1(OC(C)=O)CO[C@@H]1C[C@@H]2O [PACLITAXEL] showed a Ratio (MCF7 [6]) of 1, a Ratio (SK-OV-3 [7]) of 1 and a Ratio (WiDr [8]) of 1. The Ratio (ECa-109 cell line [9]) was 1 and the ED50 [5] was 400 nM.
With CC(=O)O[C@@H]1C2=C(C)[C@@H](OC(=O)[C@H](O)[C@@H](NC(=O)c3ccccc3)c3ccccc3)C[C@@](O)([C@@H](OC(=O)c3ccccc3)C3[C@@](C)(CC[C@H]4OC[C@@]34OC(C)=O)[C@H]1OC(=O)CCC(=O)OC[C@H]1O[C@@H](n3cnc4c(Cl)ncnc43)[C@H](O)[C@@H]1O)C2(C)C (stereo not given in full) the Ratio (SK-OV-3 [1]) was 2.24, the Ratio (ECa-109 cell line [2]) was 0.18 and the Ratio (WiDr [3]) was 2.16. For the same compound, the Ratio (MCF7 [4]) was 3.68 and the ED50 [5] was greater than 15000 nM.
For CC(=O)O[C@@H]1C2=C(C)[C@@H](OC(=O)[C@H](O)[C@@H](NC(=O)c3ccccc3)c3ccccc3)C[C@@](O)([C@@H](OC(=O)c3ccccc3)C3[C@@](C)(CC[C@H]4OC[C@@]34OC(C)=O)[C@H]1OC(=O)CCC(=O)OC[C@H]1O[C@@H](n3cc(C)c(=O)[nH]c3=O)C[C@@H]1N=[N+]=[N-])C2(C)C (stereo not given in full), the Ratio (SK-OV-3 [1]) was 3.41, the Ratio (ECa-109 cell line [2]) was 3.54 and the Ratio (WiDr [3]) was 2.62. The Ratio (MCF7 [4]) was 3.13 and the ED50 [5] was greater than 20000 nM.
